Article PMC2720952 (BMC Evolutionary Biology, 2009)

Experiments:
C. pneumoniae AaxC = C. pneumoniae AaxC (Chlamydia pneumoniae, UniProt Q9Z6M8); settings: 1 mM L-arginine, E medium pH 5, 37 °C, 20 min; AaxB co-expressed; labelled compound
[1] = molecular target: AaxC (CT374) from C. trachomatis D/UW-3 (Chlamydia trachomatis, UniProt O84379); settings: 1 mM L-arginine, E medium pH 5, 37 °C, 20 min; AaxB co-expressed; labelled compound
Sequence of AaxC (CT374) from C. trachomatis D/UW-3 (O84379 whole entry): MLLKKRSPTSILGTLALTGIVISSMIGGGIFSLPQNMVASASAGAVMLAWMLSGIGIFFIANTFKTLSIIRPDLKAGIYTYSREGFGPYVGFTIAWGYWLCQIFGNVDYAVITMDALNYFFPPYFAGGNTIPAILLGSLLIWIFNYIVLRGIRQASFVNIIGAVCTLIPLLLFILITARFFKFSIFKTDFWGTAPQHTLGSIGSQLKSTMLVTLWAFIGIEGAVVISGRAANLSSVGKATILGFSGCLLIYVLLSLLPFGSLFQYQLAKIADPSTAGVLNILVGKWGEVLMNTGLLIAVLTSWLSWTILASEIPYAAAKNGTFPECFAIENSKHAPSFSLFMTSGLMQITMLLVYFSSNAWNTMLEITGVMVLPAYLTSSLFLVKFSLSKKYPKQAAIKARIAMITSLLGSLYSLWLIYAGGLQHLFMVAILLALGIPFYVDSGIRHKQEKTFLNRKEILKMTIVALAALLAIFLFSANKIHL

Sequence of C. pneumoniae AaxC (Q9Z6M8 whole entry): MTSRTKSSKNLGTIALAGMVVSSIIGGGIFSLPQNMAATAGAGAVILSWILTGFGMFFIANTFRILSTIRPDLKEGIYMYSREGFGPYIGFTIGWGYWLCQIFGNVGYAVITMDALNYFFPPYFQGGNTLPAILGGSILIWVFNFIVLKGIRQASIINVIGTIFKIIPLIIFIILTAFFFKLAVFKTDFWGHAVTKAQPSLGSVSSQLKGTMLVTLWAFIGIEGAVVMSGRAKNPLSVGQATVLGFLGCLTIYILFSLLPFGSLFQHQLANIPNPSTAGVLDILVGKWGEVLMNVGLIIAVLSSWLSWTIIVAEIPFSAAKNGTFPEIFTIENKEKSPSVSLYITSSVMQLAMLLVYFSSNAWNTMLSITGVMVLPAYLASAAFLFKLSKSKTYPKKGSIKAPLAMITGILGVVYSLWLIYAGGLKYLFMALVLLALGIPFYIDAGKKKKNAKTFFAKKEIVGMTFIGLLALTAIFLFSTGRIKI

SMILES: N=C(N)NCCC[C@H](N)C(=O)O [L-arginine]
- uptake of L-[2,3,4,5-3H]arginine by E. coli DEG0147 cells, filtration (C. pneumoniae AaxC): A significant difference in samples expressing C. pneumoniae aaxBC (relative to pBAD/HisA)
- uptake of L-[2,3,4,5-3H]arginine by E. coli DEG0147 cells, filtration [1]: cells expressing D/UW-3 strain aaxBC genes showed significantly enhanced uptake
